According to patent publication US12522660B2, “Methods for selection and stimulation of cells and apparatus for same” (C3S2 GMBH, priority 2018, dated 2026):

Tests used:
mTOR = experiment: Intracellular S6 phosphorylation (marker of mTOR inhibition) in engineered T cells; assay type: cell-based, human; conditions: live CD8+ T cells; 1 μM at stimulation (1 mM printed for later steps)
Description: (§1) CD4+ and CD8+ T cells were isolated by immunoaffinity-based enrichment from leukapheresis samples from human donor subjects. […] The T cells cultured with our without Compound 63 were incubated overnight (approximately 24 hr) at 37° C., and were then transduced in serum-free culture media with our without Compound 63 ([…]) with a lentiviral vector encoding an anti-CD19 CAR. […] Following transduction, the cells were incubated in serum free media without recombinant cytokines (basal media) and with or without Compound 63 (1 mM) and allowed to incubate at about 37.0° C. in an incubator for up to 96 hours after initiation of the stimulation with the anti-CD3/anti-CD28 oligomeric stimulatory reagent (until day 5 of the process). […] The cryofrozen engineered CD4+ and CD8+ T cells were thawed, and T cells were assessed for intracellular S6 phosphorylation, a ribosomal protein and marker of mTOR inhibition, and co-stained for surface expression of CD4 or CD8 and for CCR7 and CD45RA as markers of memory subsets. pS6 expression in live CD8+ T cells by memory subsets was shown by the expression of CCR7 and CD45RA as shown in FIG. 6A. As shown, incubation with Compound 63 decreased the mean fluorescence intensity of stimulated memory T cell subsets, […], indicating an inhibition of mTOR, while having no significant effect on the percentage or total number of viable cells over time.

CD4+ and CD8+ T cells [1] = experiment: Viability and live cell count of engineered T cell composition; assay type: cell-based, human; conditions: generated composition; produced with versus without compound
Description: as §1

CD4+ and CD8+ T cells [2] = experiment: Caspase, CD27/CCR7 phenotype and intracellular cytokines of thawed engineered T cells; assay type: cell-based, human
Description: CD4+ and CD8+ T cells were isolated by immunoaffinity-based enrichment from leukapheresis samples from human donor subjects. At day 1, isolated CD4+ and CD8+ T cells were mixed 1:1 and stimulated with an anti-CD3/anti-CD28 oligomeric stimulatory reagent generated as described in Example 1 in serum-free media supplemented with recombinant IL-2 (100 IU/mL), recombinant IL-7 (600 IU/mL), and recombinant IL-15 (100 IU/mL) with or without 1 μM of 2-(3-hydroxyphenyl)-9-(2-isopropylphenyl)-8-oxo-8,9-dihydro-7H-purine-6-carboxamide (Compound 63). The T cells cultured with our without Compound 63 were incubated overnight (approximately 24 hr) at 37° C., and were then transduced in serum-free culture media with our without Compound 63 ([…]) with a lentiviral vector encoding an anti-CD19 CAR. The CAR contained an scFv antigen-binding domain specific for CD19 (derived from FMC63), a CD28 transmembrane region, a 4-1BB costimulatory signaling region, and a CD3-zeta derived intracellular signaling domain. Following transduction, the cells were incubated in serum free media without recombinant cytokines (basal media) and with or without Compound 63 (1 mM) and allowed to incubate at about 37.0° C. in an incubator for up to 96 hours after initiation of the stimulation with the anti-CD3/anti-CD28 oligomeric stimulatory reagent (until day 5 of the process). […] Following incubation CD4+ and CD8+ T cells from each donor were harvested, formulated, and cryofrozen.
Thawed cells generated by the process described were assessed for a marker of apoptosis (e.g., percentage of caspase positive CAR-T cells), phenotypic profile, and ability to produce intracellular cytokines following stimulation with PMA/Ionomycin and a Golgi Inhibitor. […] Thawed cells also were stained for surface expression of CD27 and CCR7 by flow cytometry.

anti-CD19 CAR T cells = experiment: Long-term (12 days) stimulation with anti-idiotype antibody beads: expansion and survival; assay type: cell-based, human; conditions: anti-ID antibody beads
Description: CD4+ and CD8+ T cells were isolated by immunoaffinity-based enrichment from leukapheresis samples from human donor subjects. At day 1, isolated CD4+ and CD8+ T cells were mixed 1:1 and stimulated with an anti-CD3/anti-CD28 oligomeric stimulatory reagent generated as described in Example 1 in serum-free media supplemented with recombinant IL-2 (100 IU/mL), recombinant IL-7 (600 IU/mL), and recombinant IL-15 (100 IU/mL) with or without 1 μM of 2-(3-hydroxyphenyl)-9-(2-isopropylphenyl)-8-oxo-8,9-dihydro-7H-purine-6-carboxamide (Compound 63). The T cells cultured with our without Compound 63 were incubated overnight (approximately 24 hr) at 37° C., and were then transduced in serum-free culture media with our without Compound 63 ([…]) with a lentiviral vector encoding an anti-CD19 CAR. The CAR contained an scFv antigen-binding domain specific for CD19 (derived from FMC63), a CD28 transmembrane region, a 4-1BB costimulatory signaling region, and a CD3-zeta derived intracellular signaling domain. […]
To further assess the functional activity of the cells, the generated T cell compositions were stimulated long-term over 12 days with beads conjugated with an anti-idiotype (ID) antibody against the anti-CD19 CAR, and expansion and survival of the cells were monitored (FIG. 7F, left panel) and total expansion metric calculated by area under the curve (FIG. 7F, right panel).

[3] = target: Strep-Tactin® (mutein streptavidin, SEQ ID NO: 4) (Streptomyces avidinii, UniProt P22629, E68V/S69T/V71R); conditions: general statement of the description, no experiment of the applicant; read-out: binding affinity KD for binding to Strep-Tactin®; cited from earlier work
Strep-Tactin® (mutein streptavidin, SEQ ID NO: 4), sequence (P22629 other isoform, or with tags, fused parts or gaps E68V/S69T/V71R): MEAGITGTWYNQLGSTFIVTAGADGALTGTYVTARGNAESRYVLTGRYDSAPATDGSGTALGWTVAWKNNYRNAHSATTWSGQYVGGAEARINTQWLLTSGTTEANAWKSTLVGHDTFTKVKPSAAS

| Molecule | pS6 mean fluorescence intensity in memory T cell subsets (Temra, Tem, Tcm) (mTOR) | percent viable cells (CD4+ and CD8+ T cells [1]) | total live cells (CD4+ and CD8+ T cells [1]) | phenotypic subset profile by CD27 and/or CCR7 expression (CD4+ and CD8+ T cells [2]; CD8+ and CD4+ T cells) | level of intracellular cytokines IL2, IFNg, or TNF (CD4+ and CD8+ T cells [2]; after PMA/Ionomycin and Golgi inhibitor, CD8+ and CD4+ T cells) | intracellular caspase expression (CD4+ and CD8+ T cells [2]; thawed CAR-T cells, with versus without compound) | function (expansion and survival) after long-term CAR-specific stimulation (anti-CD19 CAR T cells) | Kd [3] |
| --- | --- | --- | --- | --- | --- | --- | --- | --- |
| CC(C)c1ccccc1-n1c(=O)[nH]c2c(C(N)=O)nc(-c3cccc(O)c3)nc21 [Compound 63, 2-(3-hydroxyphenyl)-9-(2-isopropylphenyl)-8-oxo-8,9-dihydro-7H-purine-6-carboxamide] | decreased | did not impact | did not impact | did not substantially alter | substantially improved | less | improved function | – |
| WSHPQFEK [Strep-Tag® II] | – | – | – | – | – | – | – | ~1000 nM |
